# According to the Kinase Knowledgebase extract (Sharma et al. 2016):
# Molecular target: PIK3CA (human) (UniProt P42336)
# Test: Inhibition of PIK3CA Kinase Activity
# Sequence of PIK3CA (human) (P42336 whole entry, looked up): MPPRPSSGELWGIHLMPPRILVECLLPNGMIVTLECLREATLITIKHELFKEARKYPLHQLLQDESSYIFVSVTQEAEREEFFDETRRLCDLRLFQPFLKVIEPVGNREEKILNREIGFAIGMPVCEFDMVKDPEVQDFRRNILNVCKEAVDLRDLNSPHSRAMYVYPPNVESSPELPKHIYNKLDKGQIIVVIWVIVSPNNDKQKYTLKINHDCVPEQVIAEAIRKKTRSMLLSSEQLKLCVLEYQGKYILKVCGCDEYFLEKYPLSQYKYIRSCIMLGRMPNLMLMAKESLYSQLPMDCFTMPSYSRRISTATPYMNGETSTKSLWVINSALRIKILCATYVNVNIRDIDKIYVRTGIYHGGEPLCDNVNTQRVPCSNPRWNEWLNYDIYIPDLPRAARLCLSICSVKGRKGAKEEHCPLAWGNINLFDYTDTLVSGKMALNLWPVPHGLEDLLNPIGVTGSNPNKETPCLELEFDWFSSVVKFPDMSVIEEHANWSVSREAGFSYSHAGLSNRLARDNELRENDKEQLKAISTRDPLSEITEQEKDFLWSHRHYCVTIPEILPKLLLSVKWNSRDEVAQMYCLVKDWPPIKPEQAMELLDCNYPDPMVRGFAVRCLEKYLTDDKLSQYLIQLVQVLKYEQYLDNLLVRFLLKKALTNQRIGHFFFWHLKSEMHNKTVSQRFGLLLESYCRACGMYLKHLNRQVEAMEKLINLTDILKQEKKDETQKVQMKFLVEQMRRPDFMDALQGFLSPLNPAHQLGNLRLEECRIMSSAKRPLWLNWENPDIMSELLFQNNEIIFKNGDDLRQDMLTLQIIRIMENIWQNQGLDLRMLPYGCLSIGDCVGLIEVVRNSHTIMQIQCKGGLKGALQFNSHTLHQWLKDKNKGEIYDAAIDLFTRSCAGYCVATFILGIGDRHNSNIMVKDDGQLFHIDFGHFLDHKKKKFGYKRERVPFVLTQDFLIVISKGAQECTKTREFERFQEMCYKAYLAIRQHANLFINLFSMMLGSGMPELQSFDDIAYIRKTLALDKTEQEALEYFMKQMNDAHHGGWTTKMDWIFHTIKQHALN
row,Compound,IC50
1,Cc1cccc(-n2cnc3c(-c4cccc(O)c4)nc(N4CCOCC4)nc32)c1,< 1 µM
2,N#Cc1cccc(Cn2cnc3c(-c4cccc(O)c4)nc(N4CCOCC4)nc32)c1,< 1 µM
3,CCC(C)n1cnc2c(-c3cccc4[nH]ncc34)nc(N3CCOCC3)nc21 (configuration not stated),< 1 µM
4,CC(COC(C)(C)C)n1cnc2c(-c3cnc(N)nc3)nc(N3CCOCC3)nc21 (configuration not stated),< 1 µM
5,CC(C1CC1)n1cnc2c(-c3cnc(N)nc3)nc(N3CCOCC3)nc21 (configuration not stated),< 1 µM
6,Oc1cccc(-c2nc(N3CCOCC3)nc3c2ncn3Cc2cccc(F)c2)c1,< 1 µM
7,CC(C)n1cnc2c(-c3ccc(N)nc3)nc(N3CCOCC3)nc21,< 1 µM
8,CCC(C)n1cnc2c(-c3cnc(N)nc3)nc(N3CCOC[C@@H]3C)nc21 (some centres not stated),< 1 µM
9,CCC(C)n1c(-c2ccccc2)nc2c(-c3cccc(O)c3)nc(N3CCOCC3)nc21 (configuration not stated),< 1 µM
10,CC(C)NC(=O)Cn1cnc2c(-c3cccc(O)c3)nc(N3CCOCC3)nc21,< 1 µM
11,CCC(C)n1c(C)nc2c(-c3cccc(O)c3)nc(N3CCOCC3)nc21 (configuration not stated),< 1 µM
12,O=C(Cn1cnc2c(-c3cccc(O)c3)nc(N3CCOCC3)nc21)Nc1ccccc1,< 1 µM
13,CCC(C)n1c(N(C)C)nc2c(-c3cccc(O)c3)nc(N3CCOCC3)nc21 (configuration not stated),< 1 µM
14,c1cc(-c2nc(N3CCOCC3)nc3c2ncn3CC2CC2)c2cc[nH]c2c1,< 1 µM
15,O=[N+]([O-])c1ccc(Cn2cnc3c(-c4cccc(O)c4)nc(N4CCOCC4)nc32)cc1,< 1 µM
16,CC(=O)Nc1cccc(Cn2cnc3c(-c4cccc(O)c4)nc(N4CCOCC4)nc32)c1,< 1 µM
17,CCC(C#N)n1cnc2c(-c3cnc(N)nc3)nc(N3CCOCC3)nc21 (configuration not stated),< 1 µM
18,CC(=O)Nc1ccc(Cn2cnc3c(-c4cccc(OC(C)=O)c4)nc(N4CCOCC4)nc32)cc1,< 1 µM
19,COCCn1cnc2c(-c3cccc4[nH]ccc34)nc(N3CCOCC3)nc21,< 1 µM
20,CCCCNc1nc2c(-c3cccc(O)c3)nc(N3CCOCC3)nc2n1C(C)CC (configuration not stated),< 1 µM
21,CCC(C)n1c(N2CCCC2)nc2c(-c3cccc(O)c3)nc(N3CCOCC3)nc21 (configuration not stated),< 1 µM
22,Cc1cccc(-n2cnc3c(-c4cnc(N)nc4)nc(N4CCOCC4)nc32)c1,< 1 µM
23,CCC(C)n1cnc2c(-c3cccc(O)c3)nc(N3CCOCC3)nc21 (configuration not stated),< 1 µM
24,CC(C1CC1)n1cnc2c(-c3cccc(O)c3)nc(N3CCOCC3)nc21 (configuration not stated),< 1 µM
25,CC(c1ccccc1)n1cnc2c(-c3cnc(N)nc3)nc(N3CCOCC3)nc21 (configuration not stated),< 1 µM
26,c1cc(-c2nc(N3CCOCC3)nc3c2ncn3CCC2OCCCO2)c2cc[nH]c2c1,< 1 µM

row,Compound,IC50
1,CCNc1ccc(Cn2cnc3c(-c4cccc(O)c4)nc(N4CCOCC4)nc32)cc1,< 1 µM
2,CCC(CC)n1cnc2c(-c3cnc(N)nc3)nc(N3CCOCC3)nc21,< 1 µM
3,CS(=O)(=O)N1CCN(CCn2cnc3c(-c4cccc(O)c4)nc(N4CCOCC4)nc32)CC1,< 1 µM
4,Nc1ncc(-c2nc(N3CCOCC3)nc3c2ncn3CC2CC2)cn1,< 1 µM
5,CC(C)(C)CC(=O)N1CCC(n2cnc3c(-c4cccc5[nH]ccc45)nc(N4CCOCC4)nc32)CC1,< 1 µM
6,Nc1ccc(Cn2cnc3c(-c4cccc(O)c4)nc(N4CCOCC4)nc32)cc1,< 1 µM
7,COc1cccc(Cn2cnc3c(-c4cccc(O)c4)nc(N4CCOCC4)nc32)c1,< 1 µM
8,CS(=O)(=O)Nc1ccc(Cn2cnc3c(-c4cccc(O)c4)nc(N4CCOCC4)nc32)cc1,< 1 µM
9,CC(C)Cn1cnc2c(-c3cccc(O)c3)nc(N3CCOCC3)nc21,< 1 µM
10,CCC(C)n1c(Cl)nc2c(-c3cccc(O)c3)nc(N3CCOCC3)nc21 (configuration not stated),< 1 µM
11,CCCC(=O)N1CCC(n2cnc3c(-c4cccc5[nH]ccc45)nc(N4CCOCC4)nc32)CC1,< 1 µM
12,CCC(CC)n1cnc2c(-c3ccc(N)nc3)nc(N3CCOCC3)nc21,< 1 µM
13,Nc1ncc(-c2nc(N3CCOCC3)nc3c2ncn3-c2ccccc2)cn1,< 1 µM
14,Nc1ncc(-c2nc(N3CCOCC3)nc3c2ncn3Cc2c(F)cccc2F)cn1,< 1 µM
15,Nc1ncc(-c2nc(N3CCOCC3)nc3c2ncn3C2CCOC2)cn1 (configuration not stated),< 1 µM
16,c1cc(-c2nc(N3CCOCC3)nc3c2ncn3C2CCCC2)c2cc[nH]c2c1,< 1 µM
17,COCCn1cnc2c(-c3cccc(O)c3)nc(N3CCOCC3)nc21,< 1 µM
18,COCC(C)n1cnc2c(-c3cccc4[nH]ccc34)nc(N3CCOCC3)nc21 (configuration not stated),< 1 µM
19,Cc1ccc(C(=O)N2CCC(n3cnc4c(-c5cccc6[nH]ccc56)nc(N5CCOCC5)nc43)CC2)s1,< 1 µM
20,O=C(Cc1cccnc1)N1CCC(n2cnc3c(-c4cccc5[nH]ccc45)nc(N4CCOCC4)nc32)CC1,< 1 µM
21,CCC(C)n1cnc2c(-c3cncnc3)nc(N3CCOCC3)nc21 (configuration not stated),< 1 µM
22,CCC(C)n1cnc2c(-c3ccc(N)nc3)nc(N3CCOCC3)nc21 (configuration not stated),< 1 µM
23,CC(C)n1cnc2c(-c3cccc4[nH]ccc34)nc(N3CCOCC3)nc21,< 1 µM
24,CCC(C)n1cnc2c(-c3cnc(N)nc3C)nc(N3CCOCC3)nc21 (configuration not stated),< 1 µM
25,N#CCn1cnc2c(-c3cccc4[nH]ccc34)nc(N3CCOCC3)nc21,< 1 µM
26,O=C(CCN1CCCCC1)N1CCC(n2cnc3c(-c4cccc5[nH]ccc45)nc(N4CCOCC4)nc32)CC1,< 1 µM
